System: P. acnes
Experiment: Agar dilution method, growth of P. acnes and MIC, combinations with a fatty acid spike
Assay type: cell-based, Propionibacterium acnes
Design: key to Growth Index Plate 1 / Growth Index Plate 2 / Growth Index Plate 3 / Growth Index Avg: +++: confluent growth (comparable to control); ++: less confluent growth; +: marked reduction in growth to multiple tiny, single colonies; −: no growth present
[1] = compound at 1 mg/mL + 0.01 mg/mL 15-HETrE
[2] = compound at 1 mg/mL + 0.05 mg/mL 15-HETrE
[3] = compound at 1 mg/mL + 0.05 mg/mL 15-OHEPA
[4] = compound at 1 mg/mL + 0.1 mg/mL 15-OHEPA
[5] = compound at 1 mg/mL + 0.4 mg/mL dGLA
[6] = compound at 1 mg/mL + 1.0 mg/mL dGLA
[7] = compound at 5 mg/mL + 0.01 mg/mL 15-HETrE
[8] = compound at 5 mg/mL + 0.05 mg/mL 15-HETrE
[9] = compound at 5 mg/mL + 0.05 mg/mL 15-OHEPA
[10] = compound at 5 mg/mL + 0.1 mg/mL 15-OHEPA
[11] = compound at 5 mg/mL + 0.4 mg/mL dGLA
[12] = compound at 5 mg/mL + 1.0 mg/mL dGLA
[13] = compound at 10 mg/mL + 0.01 mg/mL 15-HETrE
[14] = compound at 10 mg/mL + 0.05 mg/mL 15-HETrE
[15] = compound at 10 mg/mL + 0.05 mg/mL 15-OHEPA
[16] = compound at 10 mg/mL + 0.1 mg/mL 15-OHEPA
[17] = compound at 10 mg/mL + 0.4 mg/mL dGLA
[18] = compound at 10 mg/mL + 1.0 mg/mL dGLA
[19] = compound at 15 mg/mL + 0.01 mg/mL 15-HETrE
[20] = compound at 15 mg/mL + 0.05 mg/mL 15-HETrE
[21] = compound at 15 mg/mL + 0.05 mg/mL 15-OHEPA
[22] = compound at 15 mg/mL + 0.1 mg/mL 15-OHEPA
[23] = compound at 15 mg/mL + 0.4 mg/mL dGLA
[24] = compound at 15 mg/mL + 1.0 mg/mL dGLA
[25] = compound at 25 mg/mL + 0.01 mg/mL 15-HETrE
[26] = compound at 25 mg/mL + 0.05 mg/mL 15-HETrE
[27] = compound at 25 mg/mL + 0.05 mg/mL 15-OHEPA
[28] = compound at 25 mg/mL + 0.1 mg/mL 15-OHEPA
[29] = compound at 25 mg/mL + 0.4 mg/mL dGLA
[30] = compound at 25 mg/mL + 1.0 mg/mL dGLA

NC(=O)c1cccnc1 [Nicotinamide]
Growth Index Avg [1]: +++ | Growth Index Plate 1 [1]: +++ | Growth Index Plate 2 [1]: +++ | Growth Index Plate 3 [1]: +++ | Growth Index Avg [2]: − | Growth Index Plate 1 [2]: − | Growth Index Plate 2 [2]: − | Growth Index Plate 3 [2]: − | Growth Index Avg [3]: +++ | Growth Index Plate 1 [3]: +++ | Growth Index Plate 2 [3]: +++ | Growth Index Plate 3 [3]: +++ | Growth Index Avg [4]: − | Growth Index Plate 1 [4]: − | Growth Index Plate 2 [4]: − | Growth Index Plate 3 [4]: − | Growth Index Avg [5]: +++ | Growth Index Plate 1 [5]: +++ | Growth Index Plate 2 [5]: +++ | Growth Index Plate 3 [5]: +++ | Growth Index Avg [6]: +++ | Growth Index Plate 1 [6]: +++ | Growth Index Plate 2 [6]: +++ | Growth Index Plate 3 [6]: +++ | Growth Index Avg [7]: +++ | Growth Index Plate 1 [7]: +++ | Growth Index Plate 2 [7]: +++ | Growth Index Plate 3 [7]: +++ | Growth Index Avg [8]: − | Growth Index Plate 1 [8]: − | Growth Index Plate 2 [8]: − | Growth Index Plate 3 [8]: − | Growth Index Avg [9]: +++ | Growth Index Plate 1 [9]: +++ | Growth Index Plate 2 [9]: +++ | Growth Index Plate 3 [9]: +++ | Growth Index Avg [10]: − | Growth Index Plate 1 [10]: − | Growth Index Plate 2 [10]: − | Growth Index Plate 3 [10]: − | Growth Index Avg [11]: +++ | Growth Index Plate 1 [11]: +++ | Growth Index Plate 2 [11]: +++ | Growth Index Plate 3 [11]: +++ | Growth Index Avg [12]: +++ | Growth Index Plate 1 [12]: +++ | Growth Index Plate 2 [12]: +++ | Growth Index Plate 3 [12]: +++ | Growth Index Avg [13]: ++ | Growth Index Plate 1 [13]: ++ | Growth Index Plate 2 [13]: ++ | Growth Index Plate 3 [13]: ++ | Growth Index Avg [14]: − | Growth Index Plate 1 [14]: − | Growth Index Plate 2 [14]: − | Growth Index Plate 3 [14]: − | Growth Index Avg [15]: +++ | Growth Index Plate 1 [15]: +++ | Growth Index Plate 2 [15]: +++ | Growth Index Plate 3 [15]: +++ | Growth Index Avg [16]: − | Growth Index Plate 1 [16]: − | Growth Index Plate 2 [16]: − | Growth Index Plate 3 [16]: − | Growth Index Avg [17]: +++ | Growth Index Plate 1 [17]: +++ | Growth Index Plate 2 [17]: +++ | Growth Index Plate 3 [17]: +++ | Growth Index Avg [18]: ++ | Growth Index Plate 1 [18]: + | Growth Index Plate 2 [18]: ++ | Growth Index Plate 3 [18]: ++ | Growth Index Avg [19]: − | Growth Index Plate 1 [19]: − | Growth Index Plate 2 [19]: − | Growth Index Plate 3 [19]: − | Growth Index Avg [20]: − | Growth Index Plate 1 [20]: − | Growth Index Plate 2 [20]: − | Growth Index Plate 3 [20]: − | Growth Index Avg [21]: − | Growth Index Plate 1 [21]: − | Growth Index Plate 2 [21]: − | Growth Index Plate 3 [21]: − | Growth Index Avg [22]: − | Growth Index Plate 1 [22]: − | Growth Index Plate 2 [22]: − | Growth Index Plate 3 [22]: − | Growth Index Avg [23]: + | Growth Index Plate 1 [23]: + | Growth Index Plate 2 [23]: + | Growth Index Plate 3 [23]: + | Growth Index Avg [24]: − | Growth Index Plate 1 [24]: − | Growth Index Plate 2 [24]: − | Growth Index Plate 3 [24]: − | Growth Index Avg [25]: − | Growth Index Plate 1 [25]: − | Growth Index Plate 2 [25]: − | Growth Index Plate 3 [25]: − | Growth Index Avg [26]: − | Growth Index Plate 1 [26]: − | Growth Index Plate 2 [26]: − | Growth Index Plate 3 [26]: − | Growth Index Avg [27]: − | Growth Index Plate 1 [27]: − | Growth Index Plate 2 [27]: − | Growth Index Plate 3 [27]: − | Growth Index Avg [28]: − | Growth Index Plate 1 [28]: − | Growth Index Plate 2 [28]: − | Growth Index Plate 3 [28]: − | Growth Index Avg [29]: − | Growth Index Plate 1 [29]: − | Growth Index Plate 2 [29]: − | Growth Index Plate 3 [29]: − | Growth Index Avg [30]: − | Growth Index Plate 1 [30]: − | Growth Index Plate 2 [30]: − | Growth Index Plate 3 [30]: − | growth of P. Acnes in combination with 15-HETrE, compared with 15-HETrE used alone (in combination with 15-HETrE): did not reduce the growth | growth of P. Acnes in combination with 15-OHEPA, compared with 15 OHEPA used alone (in combination with 15-OHEPA): did not reduce the growth | growth of P. Acnes in combination with DGLA, compared with DGLA used alone (in combination with DGLA): did not reduce the growth
